This is an account of results in EP0526840B1, “Condensed naphthyridine derivatives” (KYOWA HAKKO KOGYO CO., LTD., priority 1991, dated 1993).

Series [1] has as its system spleen cells. In words: Plaque forming cell assay (inhibition of antibody production). The format is cell-based, Balb/c strain mice. The following applies: Mus musculus, 120 h, inhibition of antibody production (PFC count), incubated 5 days, read-out: Inhibition rate (%); for inhibition at 10 µM: 10^-5M; for inhibition at 1 µM: 10^-6M. As for the experimental part:
The plaque forming cell assay was performed by the following manner with reference to the method of Jerne [Science, 140, 405, (1963)] and the method of Yamamoto et al. [Drugs Exptl. Clin. Res., 8, 5, (1982)].
Male Balb/c strain mice (aged 7 weeks, SLC) were sensitized with 1 x 10^8 sheep red blood cells (Bio Test Research Institute), and 6 or 7 days after the sensitization, the spleen was extirpated. The cells obtained from the spleen were treated with ACT solution (tris-ammonium chloride isotonic buffer) to remove red blood cells. The cells were washed three times with an RPMI-1640 medium (Nissui Pharmaceutical Co., Ltd.). The spleen cells (1 x 10^7 cells), the test compound dissolved in dimethyl sulfoxide and sheep blood red cells (5 x 10^6) were suspended in an RPMI-1640 medium containing 10% bovine serum (Gibco Company), 2-mercaptoethanol (5 x 10^-5M), 50 µg/ml of streptomycin and 50 IU/ml of penicillin. The suspension was distributed into a microculture plate (NUNC Co., Ltd., 24 holes), and incubated for 5 days in a carbon dioxide gas incubator at 37°C.
After the termination of the incubation, the cells were transferred to a plastic test tube. The supernatant was removed by centrifugal separation (2000 rpm), and the pellet was re-suspended in 1 ml of an RPMI-1640 culture medium. The cell suspension, sheep blood red cells, and guinea pig complement (Cedarlene Institute) were incubated by the method of Cunningham [Immunology, 14, 599, (1968)], at 37°C for 1 to 2 hours. The appearing direct plaque cells (PFC count) in suspension were counted. From the resulting PFC count, the inhibition rate of the antibody production of the test compound was determined by the following formula. Inhibition rate (%) =(A - B)/(A)x 100 [formula] A : PFC count in the absence of test compound (dimethylsulfoxide alone) B : PFC count in the presence of test compound

Series [2] relates to tracheae. As to the kind of experiment: Passive Schultz-Dale (S-D) reaction, relaxation of antigen-contracted tracheal strips. Set-up: species or system Hartley guinea pigs. The conditions noted are these: Cavia porcellus; concentration of 50% relaxation rate; passively sensitized guinea pig tracheal strips contracted with egg white albumin 1 µg/ml. The procedure:
Male Hartley guinea pigs weighing 350 to 500 g were passively sensitized by intraperitoneal injection of rabbit anti-OA serum prepared in advance by the method of Koda et al. [Folia Pharmacol., Japon 66, 237, (1970)]. After 24 hours, the guinea pigs were stunned and exsanguinated, and then tracheae were removed. The zig-zag strips of the tracheae were prepared by the method of Emmerson and Mackay [J. Pharm. Pharmacol., 31, 798, (1979)]. The strips were suspended in Krebs-Henseleit solution at 37°C under aeration of a mixed gas of 95% oxygen and 5% carbon dioxide, and equilibrated for one hour. Then, antigen (egg white albumin) was introduced in the solution (final concentration; 1 µg/ml), and the contraction was measured by isotonictransducer (TD-112s, Nihon Kohden Co., Ltd.) and recorded on a recorder (Type 3066, Yokogawa-Hokushin Denki, Co., Ltd.). After the contraction curves reached a plateau, the test compounds were successively added in order to get cumulative concentration-relaxation curves. The concentration of 50% relaxation rate (IC50) was calculated from the regression line, which was obtained from the cumulative concentration-relaxation curves.

The subject of series [3] is PAF-induced mortality. In words: Inhibition effect on platelet activating factor (PAF)-induced mortality. The format is in vivo, dd mice. The following applies: Mus musculus, po, 2 h, minimum effective dose, orally, one hour before 40 µg/kg PAF intravenously, mortality two hours after PAF, read-out: Inhibition of PAF-induced mortality MED. The procedure:
The experiment was performed by a minor modification of method of Carlson et al. [Agents and Actions, 21, 379 (1987)]. Groups each consisting of 10 male dd mice (weighing 28 to 32 g) were used, and 100 mg/kg of test compound or a saline (control) was orally administered. One hour after the administration of the test compound, 40 µg/kg of PAF (manufactured by Avanti Polar Lipids Co., Ltd.) were intravenously administered. Two hours after PAF injection, the mortality rate of the animals was observed. […]

Series [4] can be described thus: Acute toxicity test. In kind it is in vivo, dd-strain mice. The conditions noted are these: orally administered; mortality observed for seven days. As for the experimental part: Male dd-strain mice weighing 20 -25 g, groups each consisting of 3 animals, were used, and Compound 1 and Compound 3 were orally administered. MLD was determined by observing the mortality for seven days after the administration. MLD of both compounds were over 300 mg/kg.

Series [5] relates to hair growth. As to the kind of experiment: Hair growth stimulation. The format is in vivo, C3H/HeSlc-strain mice. The conditions noted are these: 16th day; applied once a day in ethanol : propyleneglycol (6 : 4); Compound 1 at 0.14 %, Compound 3 at 1.00 % (Table 4). An excerpt:
Effect of test compound on hair growth in mice was examined. Hair on the back of male C3H/HeSlc-strain mice aged 9 weeks, which was in the telogen of hair cycle was clipped off by an electric hair-clipper. The test compound dissolved in a solvent mixture [ethanol : propyleneglycol (6 : 4)] was uniformly applied to the hair removed area of the mice once a day. The group which received the solvent mixture alone was used as control.
Hair growth stimulation was estimated by measuring the ratio of the hair growing area to the test compound treated area by photograph. In the group having received the test comound, darkening of intraderma (indicating the formation of hair follicles) was observed on the 10th day, and then hair growth rapidly progressed.
In contrast, on the 16th day of the control group, darkening of intraderma was observed only in the part of the solvent treated area and hair growth scarcely occurred. […]

SMILES strings stand for the structures.

As a reminder, the inhibition is the relative decrease from the control value, in per cent. Broadly, the IC50 is the concentration needed to halve the response being measured. Take `O=c1c2c(-c3cccs3)n[nH]c2c2cccnc2n1-c1ccccc1` [Compound 10, 5-Phenyl-3-thienyl-1H-pyrazolo[4,3-c][1,8]naphthyridin-4(5H)-one]: in series [1], the inhibition at 10 µM worked out at 83.9% and the inhibition at 1 µM was 57.1%. For the same compound, in series [2], the IC50 turned out to be 708 nM.
Take `Nc1c2c(=O)n(-c3ccccc3)c3ncccc3c2nn1-c1ccccc1` [Compound 7, 3-Amino-2,5-diphenyl-2H-pyrazolo[4,3-c][1,8]naphtyyridin-4(5H)-one]: in series [1], the inhibition at 10 µM was found to be 83.8%.
Still for that read-out and setting: to `Cc1nn(C)c2c1c(=O)n(-c1ccccc1)c1ncccc21` [Compound 4, 1,3-Dimethyl-5-phenyl-1H-pyrazo1o[4,3-c][1,8]naphthyridin-4(5H)-one] belongs 81.4%.
In the case of `O=c1c2c(-c3ccccc3)n[nH]c2c2cccnc2n1-c1ccccc1` [Compound 1, 3,5-Diphenyl-1H-pyrazolo[4,3-c][1,8]naphthyridin-4(5H)-one], in series [1], the inhibition at 10 µM stood at 85.8% and the inhibition at 1 µM amounted to 77.2%. The minimal effective dose in series [3] stood at 10 mg/kg. The MLD entry in series [4] is “over 300 mg/kg”. The IC50 in series [2] worked out at 3150 nM. Further, the “Hair growing area (%) Mean ± S.D.” value in series [5] is 91.5 ± 8.0%.
With `Cn1nc(N)c2c(=O)n(-c3ccccc3)c3ncccc3c21` [Compound 6, 3-Amino-1-methyl-5-phenyl-1H-pyrazolo[4,3-c][1,8]naphthyridin-4(5H)-one], in series [1], the inhibition at 10 µM is 76.5%.
Consider `COc1ccc(-c2n[nH]c3c2c(=O)n(-c2ccccc2)c2ncccc32)cc1` [Compound 11, 3-(4-methoxyphenyl)-5-phenyl-1H-pyrazolo[4,3-c][1,8]naphthyridin-4(5H)-one], for which, in series [1], the inhibition at 10 µM is 99.5% and the inhibition at 1 µM stood at 26.5%.
As to `CC(C)Cc1n[nH]c2c1c(=O)n(-c1ccccc1)c1ncccc21` [Compound 3, 3-Isobutyl-5-phenyl-1H-pyrazolo[4,3-c][1,8]naphthyridin-4(5H)-one], in series [1], the inhibition at 10 µM is 74.9% and the inhibition at 1 µM worked out at 77.2%. Also, the minimal effective dose in series [3] worked out at 5 mg/kg. Moreover, the MLD result in series [4] was “over 300 mg/kg”. Further, in series [2], the IC50 is 258 nM. The “Hair growing area (%) Mean ± S.D.” value in series [5] is on record as 91.8 ± 7.2%.
As to `Cc1n[nH]c2c1c(=O)n(-c1ccccc1)c1ncccc21` [Compound 2, 3-Methyl-5-phenyl-1H-pyrazolo[4,3-c][1,8]naphthyridin-4(5H)-one], in series [1], the inhibition at 10 µM turned out to be 92.4% and the inhibition at 1 µM turned out to be 85.8%.
